Source: PubChem BioAssay AID248 (DTP/NCI, 2004)
Values joined by “and” are separate entries in the source; they are usually repeats but may differ in a detail not shown here. Equal values may be shown once. Toxic doses and inconclusive results are not listed.

Test system: L1210 leukemia ip in BDF1 mice, survival T/C
Experiment: NCI In Vivo Anticancer Drug Screen. Data for tumor model L1210 Leukemia (intraperitoneal) in B6D2F1 (BDF1) mice
Settings: endpoint: mean survival time, higher = longer survival
Summary of the method: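 Survival endpoint. Drug-treated group vs vehicle group, expressed as T divided by C. Tumor passaged by transplantation.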

[1] = dose: 100.0 mg/kg/injection, schedule: Q01DX001 (ip), vehicle: carboxymethylcellulose (CMC)
[2] = dose: 200.0 mg/kg/injection, schedule: Q01DX001 (ip), vehicle: carboxymethylcellulose (CMC)
[3] = dose: 100.0 mg/kg/injection, schedule: Q01DX001 (ip), vehicle: saline
[4] = dose: 200.0 mg/kg/injection, schedule: Q01DX001 (ip), vehicle: saline
[5] = dose: 400.0 mg/kg/injection, schedule: Q01DX001 (ip), vehicle: saline
[6] = dose: 400.0 mg/kg/injection, schedule: Q01DX001 (ip), vehicle: carboxymethylcellulose (CMC)
[7] = dose: 100.0 mg/kg/injection, schedule: Q01DX009 (ip), vehicle: saline
[8] = dose: 200.0 mg/kg/injection, schedule: Q01DX009 (ip), vehicle: saline
[9] = dose: 50.0 mg/kg/injection, schedule: Q01DX009 (ip), vehicle: Klucel (hydroxypropylcellulose) (HPC)

## NC(N)=N/N=C(/CCC(=O)O)C(=O)O
dose: 15.0 mg/kg/injection, schedule: Q01DX Z (ip), vehicle: carboxymethylcellulose (CMC)
  T/C: 100 % of control
dose: 30.0 mg/kg/injection, schedule: Q01DX Z (ip), vehicle: carboxymethylcellulose (CMC)
  T/C: 107 % of control
dose: 60.0 mg/kg/injection, schedule: Q01DX Z (ip), vehicle: carboxymethylcellulose (CMC)
  T/C: 100 % of control and 104 % of control
dose: 60.0 mg/kg/injection, schedule: Q01DX Z (oral), vehicle: carboxymethylcellulose (CMC)
  T/C: 104 % of control
dose: 60.0 mg/kg/injection, schedule: Q01DX Z (oral), vehicle: saline
  T/C: 95 % of control
dose: 120.0 mg/kg/injection, schedule: Q01DX Z (ip), vehicle: carboxymethylcellulose (CMC)
  T/C: 101 % of control and 106 % of control
dose: 120.0 mg/kg/injection, schedule: Q01DX Z (oral), vehicle: carboxymethylcellulose (CMC)
  T/C: 98 % of control
dose: 120.0 mg/kg/injection, schedule: Q01DX Z (oral), vehicle: saline
  T/C: 96 % of control
dose: 240.0 mg/kg/injection, schedule: Q01DX Z (ip), vehicle: carboxymethylcellulose (CMC)
  T/C: 98 % of control
dose: 240.0 mg/kg/injection, schedule: Q01DX Z (oral), vehicle: carboxymethylcellulose (CMC)
  T/C: 107 % of control
dose: 240.0 mg/kg/injection, schedule: Q01DX Z (oral), vehicle: saline
  T/C: 98 % of control
dose: 480.0 mg/kg/injection, schedule: Q01DX Z (oral), vehicle: carboxymethylcellulose (CMC)
  T/C: 98 % of control
dose: 480.0 mg/kg/injection, schedule: Q01DX Z (oral), vehicle: saline
  T/C: 98 % of control
dose: 960.0 mg/kg/injection, schedule: Q01DX Z (oral), vehicle: carboxymethylcellulose (CMC)
  T/C: 98 % of control and 113 % of control
dose: 960.0 mg/kg/injection, schedule: Q01DX Z (oral), vehicle: saline
  T/C: 101 % of control

## CC1(C)C2CCC1(CS(=O)(=O)Cl)C(=O)C2 (stereo not drawn)
dose: 50.0 mg/kg/injection, schedule: Q01DX001 (ip), vehicle: carboxymethylcellulose (CMC)
  T/C: 100 % of control
[1]
  T/C: 97 % of control
[2]
  T/C: 97 % of control

## O=C(NS(=O)(=O)c1ccc(Cl)c(Cl)c1)NS(=O)(=O)c1ccc(Cl)c(Cl)c1
dose: 100.0 mg/kg/injection, schedule: Q01DX001 (ip), vehicle: saline with Tween-80
  T/C: 100 % of control
dose: 200.0 mg/kg/injection, schedule: Q01DX001 (ip), vehicle: saline with Tween-80
  T/C: 99 % of control

## CC(=O)C(C(C)=O)C(=O)c1ccccc1
dose: 222.0 mg/kg/injection, schedule: Q01DX Z (ip), vehicle: saline
  T/C: 100 % of control
dose: 333.0 mg/kg/injection, schedule: Q01DX Z (ip), vehicle: saline
  T/C: 90 % of control
dose: 500.0 mg/kg/injection, schedule: Q01DX Z (ip), vehicle: saline
  T/C: 103 % of control

## COc1ccc(-n2c(=O)c(N=Nc3ccc(Br)cc3)c(O)n(-c3ccccc3C)c2=S)cc1
dose: 75.0 mg/kg/injection, schedule: Q04DX003 (ip), vehicle: Klucel (hydroxypropylcellulose) (HPC)
  T/C: 98 % of control
dose: 150.0 mg/kg/injection, schedule: Q04DX003 (ip), vehicle: Klucel (hydroxypropylcellulose) (HPC)
  T/C: 104 % of control
dose: 300.0 mg/kg/injection, schedule: Q04DX003 (ip), vehicle: Klucel (hydroxypropylcellulose) (HPC)
  T/C: 107 % of control

## NC(CC1C=CC=CC1)C(=O)O (stereo not drawn)
dose: 50.0 mg/kg/injection, schedule: Q01DX001 (ip), vehicle: saline
  T/C: 108 % of control
[3]
  T/C: 102 % of control
[4]
  T/C: 98 % of control
[5]
  T/C: 96 % of control

## CCOc1ccc(NC(=O)Oc2cc(C)c(Cl)cc2C(C)C)cc1
dose: 100.0 mg/kg/injection, schedule: Q04DX002 (ip), vehicle: Klucel (hydroxypropylcellulose) (HPC)
  T/C: 90 % of control
dose: 200.0 mg/kg/injection, schedule: Q04DX002 (ip), vehicle: Klucel (hydroxypropylcellulose) (HPC)
  T/C: 110 % of control
dose: 400.0 mg/kg/injection, schedule: Q04DX002 (ip), vehicle: Klucel (hydroxypropylcellulose) (HPC)
  T/C: 100 % of control

## CCCCCCCCCCCCCCCNC1=C(C)C(=O)C(NCCCCCCCCCCCCCCC)=C(C)C1=O
[1]
  T/C: 93 % of control
[2]
  T/C: 98 % of control
[6]
  T/C: 89 % of control

## COC(=O)C(CO)NC(c1ccccc1)(c1ccccc1)c1ccccc1 (stereo not drawn)
dose: 50.0 mg/kg/injection, schedule: Q01DX009 (ip), vehicle: saline
  T/C: 91 % of control
[7]
  T/C: 95 % of control
[8]
  T/C: 92 % of control
dose: 400.0 mg/kg/injection, schedule: Q01DX009 (ip), vehicle: saline
  T/C: 97 % of control

## COc1ccc(/C=N/NC(=O)c2ccc(Cl)cc2)cc1
dose: 50.0 mg/kg/injection, schedule: Q01DX009 (ip), vehicle: saline with Tween-80
  T/C: 88 % of control
dose: 100.0 mg/kg/injection, schedule: Q01DX009 (ip), vehicle: saline with Tween-80
  T/C: 105 % of control
dose: 200.0 mg/kg/injection, schedule: Q01DX009 (ip), vehicle: saline with Tween-80
  T/C: 91 % of control

## Cc1ccc(S(=O)(=O)c2ccccc2C)s1
[3]
  T/C: 97 % of control
dose: 100.0 mg/kg/injection, schedule: Q04DX003 (ip), vehicle: acetone
  T/C: 94 % of control
[4]
  T/C: 98 % of control
dose: 200.0 mg/kg/injection, schedule: Q04DX003 (ip), vehicle: acetone
  T/C: 98 % of control
[5]
  T/C: 93 % of control
dose: 400.0 mg/kg/injection, schedule: Q04DX003 (ip), vehicle: acetone
  T/C: 94 % of control

## N#Cc1ccc(OC(=O)c2ccc(N=C(N)N)cc2)cc1
[7]
  T/C: 94 % of control
dose: 100.0 mg/kg/injection, schedule: Q04DX003 (ip), vehicle: saline
  T/C: 96 % of control
[8]
  T/C: 91 % of control
dose: 200.0 mg/kg/injection, schedule: Q04DX003 (ip), vehicle: saline
  T/C: 93 % of control
dose: 400.0 mg/kg/injection, schedule: Q04DX003 (ip), vehicle: saline
  T/C: 88 % of control

## O=C(Nc1ccc(F)cc1)NN1CCOCC1
[9]
  T/C: 104 % of control
dose: 100.0 mg/kg/injection, schedule: Q01DX009 (ip), vehicle: Klucel (hydroxypropylcellulose) (HPC)
  T/C: 90 % of control
dose: 200.0 mg/kg/injection, schedule: Q01DX009 (ip), vehicle: Klucel (hydroxypropylcellulose) (HPC)
  T/C: 97 % of control

## COC1=C(N)C(=O)C(OC)=C(N)C1=O
[3]
  T/C: 94 % of control
[4]
  T/C: 97 % of control

## CC1CCCN(C(=S)[S-])C1.CC1CCCN(C(=S)[S-])C1.[Zn] (stereo not drawn)
dose: 1.25 mg/kg/injection, schedule: Q01DX009 (ip), vehicle: saline
  T/C: 88 % of control
dose: 2.5 mg/kg/injection, schedule: Q01DX009 (ip), vehicle: saline
  T/C: 86 % of control
dose: 2.5 mg/kg/injection, schedule: Q04DX003 (ip), vehicle: acetone
  T/C: 91 % of control
dose: 5.0 mg/kg/injection, schedule: Q04DX003 (ip), vehicle: acetone
  T/C: 88 % of control
dose: 10.0 mg/kg/injection, schedule: Q01DX001 (ip), vehicle: saline
  T/C: 96 % of control
dose: 10.0 mg/kg/injection, schedule: Q04DX003 (ip), vehicle: acetone
  T/C: 88 % of control
dose: 10.0 mg/kg/injection, schedule: Q04DX003 (ip), vehicle: saline
  T/C: 86 % of control

## Cc1cc(C)c(-c2c(O)c(Br)c(-c3c(C)cc(C)c(Br)c3C)c(O)c2Br)c(C)c1Br
dose: 12.5 mg/kg/injection, schedule: Q01DX009 (ip), vehicle: Klucel (hydroxypropylcellulose) (HPC)
  T/C: 100 % of control
dose: 12.5 mg/kg/injection, schedule: Q04DX003 (ip), vehicle: Klucel (hydroxypropylcellulose) (HPC)
  T/C: 100 % of control
dose: 25.0 mg/kg/injection, schedule: Q01DX009 (ip), vehicle: Klucel (hydroxypropylcellulose) (HPC)
  T/C: 103 % of control
dose: 25.0 mg/kg/injection, schedule: Q04DX003 (ip), vehicle: Klucel (hydroxypropylcellulose) (HPC)
  T/C: 97 % of control
[9]
  T/C: 94 % of control
dose: 50.0 mg/kg/injection, schedule: Q04DX003 (ip), vehicle: Klucel (hydroxypropylcellulose) (HPC)
  T/C: 102 % of control
dose: 75.0 mg/kg/injection, schedule: Q01DX009 (ip), vehicle: Klucel (hydroxypropylcellulose) (HPC)
  T/C: 120 % of control

## CCCCn1cnc2c(=S)nc(N)[nH]c21
dose: 3.3 mg/kg/injection, schedule: Q01DX Z (ip), vehicle: methylcellulose (MC)
  T/C: 115 % of control
dose: 5.0 mg/kg/injection, schedule: Q01DX Z (ip), vehicle: methylcellulose (MC)
  T/C: 118 % of control
dose: 19.0 mg/kg/injection, schedule: Q04DX003 (ip), vehicle: saline with Tween-80
  T/C: 111 % of control
dose: 66.0 mg/kg/injection, schedule: Q04DX003 (ip), vehicle: saline with Tween-80
  T/C: 164 % of control

## O=C1c2cccc3cc([N+](=O)[O-])cc(c23)C(=O)N1C(CO)(CO)CO
dose: 100.0 mg/kg/injection, schedule: Q04DX002 (ip), vehicle: saline
  T/C: 101 % of control
dose: 200.0 mg/kg/injection, schedule: Q04DX002 (ip), vehicle: saline
  T/C: 101 % of control
dose: 400.0 mg/kg/injection, schedule: Q04DX002 (ip), vehicle: saline
  T/C: 99 % of control

## O=C(Nc1ccc(S(=O)(=O)F)cc1)c1ccc(C(=O)Nc2ccc(S(=O)(=O)F)cc2)cc1
[1]
  T/C: 102 % of control
[2]
  T/C: 101 % of control
[6]
  T/C: 96 % of control
